Measurements published in patent publication US12029789B2, “Agent for use in the treatment of glioma” (DC EUROPA LIMITED, priority 2015, dated 2024).

Assays:
[1] = tested on: S24 GBMSC astrocytoma cells; experiment: In vivo calcium imaging with MPLSM: intercellular calcium waves (frequency, synchronicity of calcium peaks) in tumor cells; set-up: species or system mouse
Method: The following small molecule calcium indicators were used: for GFP-transfected tumor cells: 2 mM Rhod-2AM (life technologies, R-1244); for RFP-transfected: 2 mM Fluo-4AM (life technologies, F-14201). The dissolved dyes were applied to the brain surface for 45 min. Regions with a similar tumor cell density were used. […] Pharmacological gap junction inhibition was achieved by superfusion with the gap junction inhibitor CBX (100 μM; control substance: extracellular saline; n=3 mice per group).
Two genetically-encoded calcium indicators were lentivirally transduced to GBMSCs: (A) The Lck-GCaMP3 sensor in the rrl-CAG-IGC3 vector (CAG promoter to control expression of DsRed and the Ca^2+ sensor that monitors near-membrane changes in [Ca^2+]i). (B) The radiometric calcium sensor Twitch-3 was used to determine intracellular calcium concentrations by Förster Resonance Energy Transfer (FRET) as known in the art.
Tumor cells or non-malignant brain astrocytes were marked manually by the use of the ROI Manager of ImageJ. Mean gray values were measured over time. […] Local maxima of calcium signals were detected by the findpeaks function (signal package, Octave-Forge). Thus, the number of calcium peaks of each cell (N) could be determined and the frequency (f) was calculated. The frequency was standardized for the cell number of each region to ensure comparability. Synchronous cells, the number of synchronous communications, and the time point of the synchronous firing were determined. Due to the fact that the images were recorded via a line mode, which leads to a latency of signal detection, the analysis was done in a window of 2 frames around each peak. This allowed to assess the synchronicity S (S∈R^+∪{0}), which was defined as the fraction of the whole number of synchronous cells (N_Syn) divided by the number of calcium peaks for the given cell (N_Ca). In case the cells were not active, a synchronicity of zero was allotted.
For example, in a system with a synchronicity of 1, a firing cell interacts with a second one. […]

S24 GBMSCs = experiment: Intratumoral microinjection of sulforhodamine 101 (SR101): dye distribution in TM-connected tumor cell network; type: in vivo, mouse; conditions: SR101 100 μM co-injected with 100 μM CBX, 120 min after injection; FIG. 7G
Method: For intratumoral microinjection of sulforhodamine 101 (SR101, Molecular Probes, S-359), 50 nl of 100 μM SR101 (with or without 100 μM CBX, Sigma-Aldrich, C4790) were injected with a very thin glass pipette into tumor regions of similar cellular densities, >90 days after tumor injection.
For in vivo imaging data, TM numbers, branches/TM and connections/cell were counted manually, and TM lengths were measured manually in the slice mode in Imaris. For quantification and analysis of tumor cells/TMs before and after radiotherapy, cells were counted in the same regions before radiation or sham radiation, and at different time points afterwards. Cells without a TM-connection were defined as “non-connected” and cells with at least one TM-connection(s) as “connected”. To analyze the number of TMs before and after irradiation, the TMs of individual, identical cells were counted at both time points. Ratios were calculated to determine the relative changes of cell and TM numbers over time. For the measurement of tumor volumes in BT088 tumors before and after radiotherapy, two regions were analyzed per animal using the surface function of Imaris. The mean speed of tumor cell invasion in S24 shControl vs. shGAP-43 tumors was determined by analysis of three consecutive imaging time points within a 24 hour time interval in vivo. […] They were connected to tracks and the mean track speed was calculated. […]

normal brain astrocytes = experiment: In vivo calcium imaging with MPLSM: calcium waves in co-registered normal brain astrocytes; set-up: species or system mouse; conditions: superfusion with suramin 100 μM (ATP receptor blockade); FIG. 8D
Method: The following small molecule calcium indicators were used: for GFP-transfected tumor cells: 2 mM Rhod-2AM (life technologies, R-1244); for RFP-transfected: 2 mM Fluo-4AM (life technologies, F-14201). The dissolved dyes were applied to the brain surface for 45 min. Regions with a similar tumor cell density were used. For the combination of radiotherapy and calcium imaging, mice were pretreated with Fluo-4AM and imaged after awaking with low isoflurane (0.5%). One hour after radiotherapy, the same regions were imaged again to detect changes in calcium activity. Pharmacological gap junction inhibition was achieved by superfusion with the gap junction inhibitor CBX (100 μM; control substance: extracellular saline; n=3 mice per group). […]
Tumor cells or non-malignant brain astrocytes were marked manually by the use of the ROI Manager of ImageJ. Mean gray values were measured over time. […] Local maxima of calcium signals were detected by the findpeaks function (signal package, Octave-Forge). Thus, the number of calcium peaks of each cell (N) could be determined and the frequency (f) was calculated. […] Synchronous cells, the number of synchronous communications, and the time point of the synchronous firing were determined. Due to the fact that the images were recorded via a line mode, which leads to a latency of signal detection, the analysis was done in a window of 2 frames around each peak. […]

Q: How did the “ICWs between astrocytoma cells” value ([1]; superfusion with 2-APB 100 μM (inhibitor of IP3 receptors), FIG. 8D) turn out when `NCCOB(c1ccccc1)c1ccccc1` [2-APB, 2-aminoethoxydiphenyl borate] was run?
A: Its value is “reduced ICWs”.

Q: Which “frequency and synchronicity of ICWs in GBMSC astrocytoma cells” value ([1]; brain superfusion with 100 μM carbenoxolone (CBX) vs. extracellular saline, S24, FIG. 7E) does the source give for `CC1(C)[C@@H](OC(=O)CCC(=O)O)CC[C@]2(C)[C@H]3C(=O)C=C4[C@@H]5C[C@@](C)(C(=O)O)CC[C@]5(C)CC[C@@]4(C)[C@]3(C)CC[C@@H]12` [CBX, carbenoxolone] here?
A: The value was “reduced”.

Q: And the “distribution of sulforhodamine 101 in the TM-connected tumor cell network” value (S24 GBMSCs)?
A: The value was “inhibited”.

Q: How did the “ICWs in malignant astrocytic cells” value ([1]; superfusion with suramin 100 μM (ATP receptor blockade), FIG. 8D) turn out when `Cc1ccc(C(=O)Nc2ccc(S(=O)(=O)O)c3cc(S(=O)(=O)O)cc(S(=O)(=O)O)c23)cc1NC(=O)c1cccc(NC(=O)Nc2cccc(C(=O)Nc3cc(C(=O)Nc4ccc(S(=O)(=O)O)c5cc(S(=O)(=O)O)cc(S(=O)(=O)O)c45)ccc3C)c2)c1` [suramin] was run?
A: Its value is “reduced ICWs”.

Q: What about the “ICWs in normal astrocytic cells” value (normal brain astrocytes) of the same compound?
A: Its value is “reduced ICWs”.
